Common to all, as to assay type: biochemical
One experiment has as its target JAK1 kinase domain (Homo sapiens (Human), UniProt P23458). Nature of the experiment: JAK1 inhibition assay (Caliper LabChip, isolated kinase domain). The note with it: 25 uM ATP, 1.5 nM JAK1; read-out: JAK1 enzymatic activity (Ki). The source says: (§1) The catalytically active kinase domain of human JAK1, JAK2, JAK3 or TYK2 was purified from extracts of SF9 insect cells infected with a recombinant baculovirus expression vector encoding the human JAK1, JAK2, JAK3 or TYK2 kinase domains (JAK1 amino acid residues N852-D1154 according to the numbering of GenBank sequence accession number P23458, JAK2 amino acid residues D812-G1132 according to the numbering of GenBank sequence accession number NP_004963.1; JAK3 amino acid residues S783-S1124 according to the numbering of GenBank sequence accession number P52333, and TYK2 amino acid residues N873-C1187 according to the numbering of GenBank sequence accession number P29597). The activity of the JAK1, JAK2, JAK3 or TYK2 kinase domains can be measured by a number of direct and indirect methods, including quantification of phosphorylation of peptide substrates derived from the human JAK3 protein (Saltzman et al., Biochem. Biophys. Res. Commun. 246:627-633 (2004)). The activity of the JAK1, JAK2, JAK3 or TYK2 kinase domains was measured in vitro by monitoring phosphorylation of JAK3 derived peptides using the Caliper LabChip technology (see Examples).
(§2) The activity of the isolated JAK1, JAK2 or TYK2 kinase domain was measured by monitoring phosphorylation of a peptide derived from JAK3 ([…] fluorescently labeled on the N-terminus with 5-carboxyfluorescein using the Caliper LabChip technology (Caliper Life Sciences, Hopkinton, Mass.). […] Reactions were incubated at 22° C. in 384-well polypropylene microtiter plates for 30 minutes and then stopped by addition of 25 uL of an EDTA containing solution (100 mM Hepes pH 7.2, 0.015% Brij-35, 150 mM EDTA), resulting in a final EDTA concentration of 50 mM. After termination of the kinase reaction, the proportion of phosphorylated product was determined as a fraction of total peptide substrate using the Caliper LabChip 3000 according to the manufacturer's specifications. Ki values were then determined using the Morrison tight binding model. Morrison, J. F., Biochim. Biophys. Acta. 185:269-296 (1969); William, J. W. and Morrison, J. F., Meth. Enzymol., 63:437-467 (1979).

The next experiment addresses JAK3 kinase domain (Homo sapiens (Human), UniProt P52333). Nature of the experiment: JAK3 inhibition assay (Caliper LabChip, isolated kinase domain). The note with it: 5 uM ATP, 5 nM JAK3; read-out: JAK3 enzymatic activity (Ki).
Excerpt: as §1, with “Previous studies have shown that the isolated kinase domains of human JAK1, JAK2, JAK3 or TYK2 phosphorylate peptide substrates in in vitro kinase assays (Saltzman et al., Biochem. Biophys. Res. Commun. 246:627-633 (2004)). The catalytically” for “The catalytically”
as §2, with “JAK3” for “JAK1, JAK2 or TYK2”

In another experiment the target is TYK2 kinase domain (Homo sapiens (Human), UniProt P29597). The experiment can be described thus: TYK2 inhibition assay (Caliper LabChip, isolated kinase domain). The note with it: 25 uM ATP, 1 nM TYK2; read-out: TYK2 enzymatic activity (Ki).
Chain of TYK2 kinase domain (P29597 873-1187): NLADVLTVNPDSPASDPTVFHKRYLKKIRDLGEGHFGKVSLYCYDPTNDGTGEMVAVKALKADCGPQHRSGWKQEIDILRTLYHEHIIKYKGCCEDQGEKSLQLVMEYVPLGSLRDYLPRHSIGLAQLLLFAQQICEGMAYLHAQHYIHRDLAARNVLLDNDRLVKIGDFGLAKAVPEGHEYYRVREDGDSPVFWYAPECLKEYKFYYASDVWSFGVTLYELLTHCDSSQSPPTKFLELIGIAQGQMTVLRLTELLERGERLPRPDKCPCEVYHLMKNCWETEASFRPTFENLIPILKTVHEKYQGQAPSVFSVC
Excerpt: as §1, §2

The target of the next experiment is JAK2 kinase domain (Homo sapiens (Human), UniProt O60674). The experiment can be described thus: JAK2 inhibition assay (Caliper LabChip, isolated kinase domain). The note with it: 25 uM ATP, 0.2 nM JAK2; read-out: JAK2 enzymatic activity (Ki).
Chain of JAK2 kinase domain (O60674 812-1132): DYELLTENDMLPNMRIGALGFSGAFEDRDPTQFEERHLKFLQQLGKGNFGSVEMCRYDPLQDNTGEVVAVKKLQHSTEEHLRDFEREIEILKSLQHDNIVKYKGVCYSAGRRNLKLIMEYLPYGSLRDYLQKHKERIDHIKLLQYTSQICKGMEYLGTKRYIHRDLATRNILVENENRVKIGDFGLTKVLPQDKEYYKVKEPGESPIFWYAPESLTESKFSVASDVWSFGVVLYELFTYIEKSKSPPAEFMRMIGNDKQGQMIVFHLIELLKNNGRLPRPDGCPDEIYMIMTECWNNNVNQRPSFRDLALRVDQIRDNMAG
Excerpt: as §1, §2

Chain of JAK3 kinase domain (P52333 783-1124): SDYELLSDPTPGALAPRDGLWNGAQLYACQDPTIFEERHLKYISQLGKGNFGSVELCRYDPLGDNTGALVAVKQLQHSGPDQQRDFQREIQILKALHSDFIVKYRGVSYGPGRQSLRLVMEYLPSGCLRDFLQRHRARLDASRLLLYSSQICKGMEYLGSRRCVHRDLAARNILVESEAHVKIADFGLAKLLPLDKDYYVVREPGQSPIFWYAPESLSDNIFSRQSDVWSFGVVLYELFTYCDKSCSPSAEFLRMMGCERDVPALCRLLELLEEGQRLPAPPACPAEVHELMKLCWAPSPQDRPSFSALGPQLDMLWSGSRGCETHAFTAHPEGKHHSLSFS
Chain of JAK1 kinase domain (P23458 852-1154): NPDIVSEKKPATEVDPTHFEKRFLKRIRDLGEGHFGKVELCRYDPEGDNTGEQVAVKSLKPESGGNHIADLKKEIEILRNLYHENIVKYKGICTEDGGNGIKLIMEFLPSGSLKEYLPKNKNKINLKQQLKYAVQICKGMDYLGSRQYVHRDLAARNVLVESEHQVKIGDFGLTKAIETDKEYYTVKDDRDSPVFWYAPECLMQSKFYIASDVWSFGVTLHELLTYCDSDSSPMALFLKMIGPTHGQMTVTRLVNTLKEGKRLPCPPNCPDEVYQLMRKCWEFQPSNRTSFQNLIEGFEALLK

Turning to `CCOc1ccc(Cl)cc1-c1nn([C@H]2CCCC[C@@H]2O)cc1NC(=O)c1cnn2cccnc12` (stereo in doubt) [Example 414, N-(3-(5-chloro-2-ethoxyphenyl)-1-((1S,2S)-2-hydroxycyclohexyl)-1H-pyrazol-4-yl)pyrazolo[1,5-a]pyrimidine-3-carboxamide And N-(3-(5-chloro-2-ethoxyphenyl)-1-((1R,2R)-2-hydroxycyclohexyl)-1H-pyrazol-4-yl)pyrazolo[1,5-a]pyrimidine-3-carboxamide], the Ki (in general, a measure of affinity in units of concentration, obtained from inhibition or displacement) amounted to 3.8 nM on JAK1 kinase domain, 210 nM at JAK3 kinase domain, 76 nM on TYK2 kinase domain and 12.5 nM on JAK2 kinase domain.
For `Cc1cc(NC(=O)c2cnn3cccnc23)n(-c2cc(Cl)ccc2C)n1` [Example 6, N-(1-(5-chloro-2-methylphenyl)-3-methyl-1H-pyrazol-5-yl)pyrazolo[1,5-a]pyrimidine-3-carboxamide] the same measures were 46.2 nM, 152 nM, 99.6 nM and 4.9 nM.
For `Cc1cc(NC(=O)c2cnn3cccnc23)n(-c2cc(C#N)ccc2Cl)n1` [Example 38, N-(1-(2-chloro-5-cyanophenyl)-3-methyl-1H-pyrazol-5-yl)pyrazolo[1,5-a]pyrimidine-3-carboxamide] the same measures were 40.3 nM, 102 nM, 131 nM and 5.7 nM.
For `Cc1cc(NC(=O)c2cnn3cccnc23)n(-c2cc(Cl)ccc2Cl)n1` [Example 41, N-(1-(2,5-dichlorophenyl)-3-methyl-1H-pyrazol-5-yl)pyrazolo[1,5-a]pyrimidine-3-carboxamide] the same measures were 35.1 nM, 73.9 nM, 104 nM and 3.3 nM.
Take `Cc1cc(NC(=O)c2cnn3cccnc23)n(-c2ccccc2Br)n1` [Example 44, N-(1-(2-bromophenyl)-3-methyl-1H-pyrazol-5-yl)pyrazolo[1,5-a]pyrimidine-3-carboxamide]: the Ki on JAK1 kinase domain is 131 nM; on JAK3 kinase domain, 140 nM; at TYK2 kinase domain, 480 nM; at JAK2 kinase domain, 18 nM.
Take `O=C(Nc1ccnn1-c1ccccc1Cl)c1cnn2cccnc12` [Example 51, N-(1-(2-chlorophenyl)-1H-pyrazol-5-yl)pyrazolo[1,5-a]pyrimidine-3-carboxamide]: the Ki on JAK1 kinase domain was 83.7 nM; at JAK3 kinase domain it was 150 nM; on TYK2 kinase domain, 98 nM; at JAK2 kinase domain, 15.2 nM.
As to `O=C(Nc1ccnn1-c1ccc(Cl)cc1)c1cnn2cccnc12` [Example 54, N-(1-(4-chlorophenyl)-1H-pyrazol-5-yl)pyrazolo[1,5-a]pyrimidine-3-carboxamide], the Ki amounted to 1200 nM on JAK1 kinase domain, 850 nM on TYK2 kinase domain and 159 nM on JAK2 kinase domain.
Take `O=C(Nc1ccncc1-c1cccc(F)c1)c1cnn2cccnc12` [Example 63, N-(3-(3-fluorophenyl)pyridin-4-yl)pyrazolo[1,5-a]pyrimidine-3-carboxamide]: the Ki amounted to 153 nM at JAK1 kinase domain, 200 nM at JAK3 kinase domain, 140 nM on TYK2 kinase domain and 23 nM on JAK2 kinase domain.
For `COc1ccc(Cl)cc1-c1c(NC(=O)c2cnn3cccnc23)cnn1CCO` [Example 109, N-(5-(5-chloro-2-methoxyphenyl)-1-(2-hydroxyethyl)-1H-pyrazol-4-yl)pyrazolo[1,5-a]pyrimidine-3-carboxamide] the same measures were 4.4 nM, 18 nM, 5.6 nM and 1 nM.
For `COc1cnc(C(F)(F)F)cc1-c1nn(CC(C)(C)O)cc1NC(=O)c1cnn2cccnc12` [Example 143, N-(1-(2-hydroxy-2-methylpropyl)-3-(5-methoxy-2-(trifluoromethyl)pyridin-4-yl)-1H-pyrazol-4-yl)pyrazolo[1,5-a]pyrimidine-3-carboxamide] the same measures were 12 nM, 1500 nM, 350 nM and 38.5 nM.
For `COc1ccc(C#N)cc1-c1nn(Cc2ncnn2C)cc1NC(=O)c1cnn2cccnc12` [Example 155] the same measures were 4.2 nM, 210 nM, 65 nM and 2.6 nM.
For the molecule `COc1ncc(C#N)cc1-c1n[nH]cc1NC(=O)c1cnn2cccnc12` [Example 158, N-(3-(5-Cyano-2-methoxypyridin-3-yl)-1H-pyrazol-4-yl)pyrazolo[1,5-a]pyrimidine-3-carboxamide], the inhibition constant Ki on JAK1 kinase domain came to 4.8 nM; at JAK3 kinase domain, 53 nM; on TYK2 kinase domain, 6.6 nM; on JAK2 kinase domain, 1.5 nM.
For `COc1ccc(Cl)cc1-c1nc(C)sc1NC(=O)c1cnn2cccnc12` [Example 170, N-(4-(5-chloro-2-methoxyphenyl)-2-methylthiazol-5-yl)pyrazolo[1,5-a]pyrimidine-3-carboxamide] the same measures were 0.7 nM, 13 nM, 2.1 nM and 0.4 nM.
For `O=C(Nc1c[nH]nc1-n1cc(Cl)ccc1=O)c1cnn2cccnc12` [Example 194, N-(3-(5-chloro-2-oxopyridin-1(2H)-yl)-1H-pyrazol-4-yl)pyrazolo[1,5-a]pyrimidine-3-carboxamide] the same measures were 775 nM, 4100 nM, 980 nM and 110 nM.
Turning to `COc1ccc(Cl)cc1-c1c(NC(=O)c2c(N)nn3cccnc23)cnn1CC(N)=O` [Example 217, 2-amino-N-(1-(2-amino-2-oxoethyl)-5-(5-chloro-2-methoxyphenyl)-1H-pyrazol-4-yl)pyrazolo[1,5-a]pyrimidine-3-carboxamide], the Ki at JAK1 kinase domain stood at 2.1 nM; at JAK3 kinase domain it was 5.5 nM; on TYK2 kinase domain it was 2.3 nM; on JAK2 kinase domain, 0.5 nM.
For `COc1ccc(Cl)cc1-c1nn(CC(=O)N2CCCC2C)cc1NC(=O)c1cnn2cccnc12` (stereo not drawn) [Example 283, N-(3-(5-chloro-2-methoxyphenyl)-1-(2-(2-methylpyrrolidin-1-yl)-2-oxoethyl)-1H-pyrazol-4-yl)pyrazolo[1,5-a]pyrimidine-3-carboxamide] the same measures were 0.7 nM, 270 nM, 9.1 nM and 3.1 nM.

Source of the values: patent US8999998B2, “Pyrazolopyrimidine JAK inhibitor compounds and methods” (Genentech, Inc., priority 2009, dated 2015).
